These results are taken from patent US12459921B2, “Isoindoline compound, preparation method, pharmaceutical composition and use thereof” (SHANGHAI INSTITUTE OF MATERIA MEDICA, CHINESE ACADEMY OF …, priority 2018, dated 2025).

The assay deals with MM.1S cells. Put plainly: Inhibitory effect on the proliferation of MM.1S, MTS cell viability test. Type of assay: cell-based. As to conditions: multiple myeloma MM.1S cells, 7 days incubation, read-out: Tumor cell inhibitory activity. In short, it runs like this:
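MM.1S cells (20,000/well, RPMI 1640 with 10% FBS) exposed to 5-fold compound dilutions at 0.2% DMSO for 7 days at 37° C, 5% CO2. MTS added for 3-4 h; OD490-OD690 gave inhibition versus DMSO, IC50 fitted, mean of three experiments.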
In general terms: Tetrazolium dyes change colour on reduction, which living cells bring about.

pIC50: −log10 of the molar value. Where two headings read alike, the source gives them in different places.

As to `O=C1CCC(N2Cc3c(OCCCCN4CCC(c5noc6cc(F)ccc56)CC4)cccc3C2=O)C(=O)N1` (stereo not drawn) [Example 241, 3-(4-(4-(4-(6-fluorobenzisoxazole-3-yl)piperidin-1-yl)butoxy)-1-oxoisoindoline-2-yl) piperidine-2,6-dione], the pIC50 (Homo sapiens, MM1.S, 168 h) is 4.70 to 6.00.

For `O=C1CCC(N2Cc3c(OCCCCN4CCN(c5noc6ccccc56)CC4)cccc3C2=O)C(=O)N1` (stereo not drawn) [Example 242, 3-(4-(4-(4-(benzisoxazole-3-yl)piperazine-1-yl)butoxy)-1-oxoisoindoline-2-yl)piperidine-2,6-dione], the pIC50 (Homo sapiens, MM1.S, 168 h) is 4.70 to 6.00. Take `O=C1CCC(N2Cc3c(OCCCCN4CCN(c5ccc(Cl)c(Cl)c5)CC4)cccc3C2=O)C(=O)N1` (stereo not drawn) [Example 243, 3-(4-(4-(4-(3,4-dichlorophenyl)piperazine-1-yl)butoxy)-1-oxoisoindoline-2-yl)piperidine-2,6-dione]: the pIC50 (Homo sapiens, MM1.S, 168 h) was 6.00 to 7.00.

On to `N#CC1(c2cc(Cl)cc(Cl)c2)CCN(CCCCc2cccc3c2CN(C2CCC(=O)NC2=O)C3=O)CC1` (stereo not drawn) [Example 244, 4-(3,5-dichlorophenyl)-1-(4-(2-(2,6-dioxopiperidine-3-yl)-1-oxoisoindoline-4-yl)butyl)piperidine-4-carbonitrile], for which, for the setting “Homo sapiens, MM1.S, 168 h”, the pIC50 was 6.00 to 7.00.

Take `COc1ccc(C2(C#N)CCN(CCCCc3cccc4c3CN(C3CCC(=O)NC3=O)C4=O)CC2)c(Cl)c1` (stereo not drawn) [Example 245, 4-(2-chloro-4-methoxyphenyl)-1-(4-(2-(2,6-dioxopiperidine-3-yl)-1-oxoisoindoline-4-yl)butyl)piperidine-4-carbonitrile]: for the setting “Homo sapiens, MM1.S, 168 h”, the pIC50 was 6.00 to 7.00. Consider `COc1ccc(OC)c(C2(C#N)CCN(CCCCc3cccc4c3CN(C3CCC(=O)NC3=O)C4=O)CC2)c1` (stereo not drawn) [Example 246, 4-(2,5-dimethoxyphenyl)-1-(4-(2-(2,6-dioxopiperidine-3-yl)-1-oxoisoindoline-4-yl)butyl)piperidine-4-carbonitrile], for which, where the note is “Homo sapiens, MM1.S, 168 h”, the pIC50 is 6.00 to 7.00. For `COc1ccc(OC)c(C2(C#N)CCN(CCCCCc3cccc4c3CN(C3CCC(=O)NC3=O)C4=O)CC2)c1` (stereo not drawn) [Example 247, 4-(2,5-dimethoxyphenyl)-1-(5-(2-(2,6-dioxopiperidine-3-yl)-1-oxoisoindoline-4-yl)pentyl)piperidine-4-carbonitrile], the pIC50 (Homo sapiens, MM1.S, 168 h) was 6.00 to 7.00.

As for `COc1ccc(C2(C#N)CCN(CCCCCc3cccc4c3CN(C3CCC(=O)NC3=O)C4=O)CC2)cc1OC` (stereo not drawn) [Example 249, 4-(3,4-dimethoxyphenyl)-1-(5-(2-(2,6-dioxopiperidine-3-yl)-1-oxoisoindoline-4-yl)pentyl)piperidine-4-carbonitrile], the pIC50 (Homo sapiens, MM1.S, 168 h) is 6.00 to 7.00.

With `N#CC1(c2c(Cl)cccc2Cl)CCN(CCCCCc2cccc3c2CN(C2CCC(=O)NC2=O)C3=O)CC1` (stereo not drawn) [Example 250, 4-(2,6-dichlorophenyl)-1-(5-(2-(2,6-dioxopiperidin-3-yl)-1-oxoisoindoline-4-yl)pentyl)piperidine-4-carbonitrile], the pIC50 (Homo sapiens, MM1.S, 168 h) was 6.00 to 7.00.

As for `N#CC1(c2cc(Cl)cc(Cl)c2)CCN(CCCCCc2cccc3c2CN(C2CCC(=O)NC2=O)C3=O)CC1` (stereo not drawn) [Example 251, 4-(3,5-dichlorophenyl)-1-(5-(2-(2,6-dioxopiperidin-3-yl)-1-oxoisoindoline-4-yl)pentyl)piperidine-4-carbonitrile], the pIC50 (Homo sapiens, MM1.S, 168 h) was 6.00 to 7.00. Turning to `N#CC1(c2ccc(O[C@H]3CCOC3)cc2)CCN(CCCCCc2cccc3c2CN(C2CCC(=O)NC2=O)C3=O)CC1` (stereo partly drawn) [Example 252, 1-(5-(2-(2,6-dioxopiperidin-3-yl)-1-oxoisoindolin-4-yl)pentyl)-4-(4-(((S)-tetrahydrofuran-3-yl)oxy)phenyl)piperidine-4-carbonitrile], the pIC50 (Homo sapiens, MM1.S, 168 h) is 6.00 to 7.00. With `COc1ccc(C2(C#N)CCN(CCCCc3cccc4c3CN(C3CCC(=O)NC3=O)C4=O)CC2)c(OC)c1OC` (stereo not drawn) [Example 253, 1-(4-(2-(2,6-dioxopiperidin-3-yl)-1-oxoisoindolin-4-yl)butyl)-4-(2,3,4-trimethoxyphenyl)piperidine-4-carbonitrile], for the setting “Homo sapiens, MM1.S, 168 h”, the pIC50 was 4.70 to 6.00.

For `COc1ccc(C2(C#N)CCN(CCCCCc3cccc4c3CN(C3CCC(=O)NC3=O)C4=O)CC2)c(OC)c1OC` (stereo not drawn) [Example 254, 1-(5-(2-(2,6-dioxopiperidin-3-yl)-1-oxoisoindolin-4-yl)pentyl)-4-(2,3,4-trimethoxyphenyl)piperidine-4-carbonitrile], the pIC50 (Homo sapiens, MM1.S, 168 h) was 4.70 to 6.00. Turning to `COc1ccc(C2(C#N)CCN(CCCCCc3cccc4c3CN(C3CCC(=O)NC3=O)C4=O)CC2)c(OC)c1` (stereo not drawn) [Example 255, 4-(2,4-dimethoxyphenyl)-1-(5-(2-(2,6-dioxopiperidin-3-yl)-1-oxoisoindoline-4-yl)pentyl)piperidine-4-carbonitrile], the pIC50 (Homo sapiens, MM1.S, 168 h) was 4.70 to 6.00. For `COc1ccc(C2(C#N)CCN(CCCCc3cccc4c3CN(C3CCC(=O)NC3=O)C4=O)CC2)c(OC)c1` (stereo not drawn) [Example 256, 4-(2,4-dimethoxyphenyl)-1-(4-(2-(2,6-dioxopiperidin-3-yl)-1-oxoisoindoline-4-yl)butyl)piperidine-4-carbonitrile], the pIC50 (Homo sapiens, MM1.S, 168 h) was 4.70 to 6.00. On the same count and under the same terms, to `N#CC1(c2ccc(OC(F)(F)F)cc2Cl)CCN(CCCCc2cccc3c2CN(C2CCC(=O)NC2=O)C3=O)CC1` (stereo not drawn) [Example 257, 4-(2-chloro-4-(trifluoromethoxy)phenyl)-1-(4-(2-(2,6-dioxopiperidin-3-yl)-1-oxoisoindolin-4-yl)butyl)piperidine-4-carbonitrile] belongs 6.00 to 7.00; to `N#CC1(c2ccc(OC(F)(F)F)cc2Cl)CCN(CCCCCc2cccc3c2CN(C2CCC(=O)NC2=O)C3=O)CC1` (stereo not drawn) [Example 258, 4-(2-chloro-4-(trifluoromethoxy)phenyl)-1-(5-(2-(2,6-dioxopiperidin-3-yl)-1-oxoisoindolin-4-yl)pentyl)piperidine-4-carbonitrile], 6.00 to 7.00; to `COc1cccc(C2(C#N)CCN(CCCCc3cccc4c3CN(C3CCC(=O)NC3=O)C4=O)CC2)c1OC` (stereo not drawn) [Example 259, 4-(2,3-dimethoxyphenyl)-1-(4-(2-(2,6-dioxopiperidin-3-yl)-1-oxoisoindoline-4-yl)butyl)piperidine-4-carbonitrile], 6.00 to 7.00. With `COc1cccc(C2(C#N)CCN(CCCCCc3cccc4c3CN(C3CCC(=O)NC3=O)C4=O)CC2)c1OC` (stereo not drawn) [Example 260, 4-(2,3-dimethoxyphenyl)-1-(5-(2-(2,6-dioxopiperidin-3-yl)-1-oxoisoindoline-4-yl)pentyl)piperidine-4-carbonitrile], for the setting “Homo sapiens, MM1.S, 168 h”, the pIC50 was 6.00 to 7.00. With `Cc1cc(C)c(C2(C#N)CCN(CCCCc3cccc4c3CN(C3CCC(=O)NC3=O)C4=O)CC2)c(C)c1` (stereo not drawn) [Example 261, 1-(4-(2-(2,6-dioxopiperidin-3-yl)-1-oxoisoindolin-4-yl)butyl)-4-sym-trimethylphenylpiperidine-4-carbonitrile], where the note is “Homo sapiens, MM1.S, 168 h”, the pIC50 is 4.70 to 6.00. Same read-out and setting: in the case of `Cc1cc(C)c(C2(C#N)CCN(CCCCCc3cccc4c3CN(C3CCC(=O)NC3=O)C4=O)CC2)c(C)c1` (stereo not drawn) [Example 262, 1-(5-(2-(2,6-dioxopiperidin-3-yl)-1-oxoisoindolin-4-yl)pentyl)-4-sym-trimethylphenylpiperidine-4-carbonitrile] it was 4.70 to 6.00. For `N#CC1(c2ccc(O[C@H]3CCOC3)cc2)CCN(CCCCCc2cccc3c2CN(C2CCC(=O)NC2=O)C3=O)CC1` (stereo partly drawn) [Example 263, 1-(5-(2-(2,6-dioxopiperidin-3-yl)-1-oxoisoindolin-4-yl)pentyl)-4-(4-(((S)-tetrahydrofuran-3-yl)oxy)phenyl)piperidine-4-carbonitrile], the pIC50 was 6.00 to 7.00.

`COCCOc1ccc(C2(C#N)CCN(CCCCCc3cccc4c3CN(C3CCC(=O)NC3=O)C4=O)CC2)cc1` (stereo not drawn) [Example 264, 1-(5-(2-(2,6-dioxopiperidin-3-yl)-1-oxoisoindolin-4-yl)pentyl)-4-(4-(2-methoxyethoxy)phenyl)piperidine-4-carbonitrile]: where the note is “Homo sapiens, MM1.S, 168 h”, the pIC50 was 6.00 to 7.00. With `COc1ccc(C2(C#N)CCN(CCCCCc3cccc4c3CN(C3CCC(=O)NC3=O)C4=O)CC2)cc1` (stereo not drawn) [Example 265, 1-(5-(2-(2,6-dioxopiperidin-3-yl)-1-oxoisoindolin-4-yl)pentyl)-4-(4-methoxyphenyl)piperidine-4-carbonitrile], the pIC50 (Homo sapiens, MM1.S, 168 h) was 4.70 to 6.00. For the compound `N#CC1(c2c(Cl)cccc2Cl)CCN(CCCCc2cccc3c2CN(C2CCC(=O)NC2=O)C3=O)CC1` (stereo not drawn) [Example 266, 4-(2,6-dichlorophenyl)-1-(4-(2-(2,6-dioxopiperidin-3-yl)-1-oxoisoindoline-4-yl)butyl)piperidine-4-carbonitrile], for the setting “Homo sapiens, MM1.S, 168 h”, the pIC50 was 6.00 to 7.00. Consider `COc1ccc(C2(C#N)CCN(CCCCCc3cccc4c3CN(C3CCC(=O)NC3=O)C4=O)CC2)c(Cl)c1` (stereo not drawn) [Example 267, 4-(2-chloro-4-methoxyphenyl)-1-(5-(2-(2,6-dioxopiperidin-3-yl)-1-oxoisoindoline-4-yl)pentyl)piperidine-4-carbonitrile], for which the pIC50 (Homo sapiens, MM1.S, 168 h) was 6.00 to 7.00.

As for `N#Cc1ccc(C2(C#N)CCN(CCCCCc3cccc4c3CN(C3CCC(=O)NC3=O)C4=O)CC2)cc1` (stereo not drawn) [Example 268, 4-(4-cyanophenyl)-1-(5-(2-(2,6-dioxopiperidin-3-yl)-1-oxoisoindoline-4-yl)pentyl)piperidine-4-carbonitrile], the pIC50 (Homo sapiens, MM1.S, 168 h) is 6.00 to 7.00. Consider `N#CC1(c2cc(Cl)ccc2Cl)CCN(CCCCc2cccc3c2CN(C2CCC(=O)NC2=O)C3=O)CC1` (stereo not drawn) [Example 269, 4-(2,5-dichlorophenyl)-1-(4-(2-(2,6-dioxopiperidin-3-yl)-1-oxoisoindoline-4-yl)butyl)piperidine-4-carbonitrile], for which the pIC50 (Homo sapiens, MM1.S, 168 h) was 6.00 to 7.00. For the compound `N#CC1(c2ccc(OC3COC3)cc2)CCN(CCCCCc2cccc3c2CN(C2CCC(=O)NC2=O)C3=O)CC1` (stereo not drawn) [Example 270, 1-(5-(2-(2,6-dioxopiperidin-3-yl)-1-oxoisoindolin-4-yl)pentyl)-4-(4-(oxetan-3-yloxy)phenyl)piperidine-4-carbonitrile], the pIC50 (Homo sapiens, MM1.S, 168 h) is 6.00 to 7.00. Take `N#CC1(c2ccc(C(F)(F)F)cc2)CCN(CCCCCc2cccc3c2CN(C2CCC(=O)NC2=O)C3=O)CC1` (stereo not drawn) [Example 271, 1-(5-(2-(2,6-dioxopiperidin-3-yl)-1-oxoisoindolin-4-yl)pentyl)-4-(4-(trifluoromethyl)phenyl)piperidine-4-carbonitrile]: the pIC50 (Homo sapiens, MM1.S, 168 h) was 4.70 to 6.00.
